Results taken from patent publication US20090042839A1, “Crystalline forms of ibandronate sodium” (priority 2007, published 2009).

What was measured:
[1] = Stability of crystalline forms of ibandronate sodium when stored for 3 months at room temperature (polymorphic form by XRD); format: physicochemical; settings: for crystalline form after storage: storage at room temperature for 3 months; for Results (crystalline form after storage): stored at 25° C., polyethylene bags in closed Aluminium bags, monosodium salt
Protocol: The x-ray powder diffraction was performed on Scintag X-ray powder diffractometer model X'TRA with a solid state detector at room temperature. Copper radiation of 1.5418 Å was used. The sample holder was a round standard aluminum sample holder with rough zero background. The scanning parameters were range: 2-40 degrees two-theta; scan mode: continuous scan; step size: 0.05 degrees; and at a rate of 5 degrees/minute. […]

[2] = Storage of crystalline ibandronate sodium Form C at room temperature for 2 years, retested by XRD; format: physicochemical; settings: stored at room temperature for 2 years
Protocol: The x-ray powder diffraction was performed on Scintag X-ray powder diffractometer model X'TRA with a solid state detector at room temperature. Copper radiation of 1.5418 Å was used. The sample holder was a round standard aluminum sample holder with rough zero background. The scanning parameters were range: 2-40 degrees two-theta; scan mode: continuous scan; step size: 0.05 degrees; and at a rate of 5 degrees/minute.
Crystalline ibandronate sodium Form C was stored at room temperature for 2 years.

Compound | crystalline form after storage [1] | Results (crystalline form after storage) ([1]; 1 month) | Results (crystalline form after storage) ([1]; 3 months) | crystalline form found by XRD after storage [2]
CCCCCN(C)CCC(O)(P(=O)([O-])O)P(=O)(O)O.[Na+] [Form Alpha, (1-hydroxy-3-(N-methyl-N-pentylamino)propylidene) bisphosphonic acid monosodium salt] | maintained their crystalline form | Alpha | Alpha | –
CCCCCN(C)CCC(O)(P(=O)([O-])O)P(=O)(O)O.[Na+] [Form n-butanolate, (1-hydroxy-3-(N-methyl-N-pentylamino)propylidene) bisphosphonic acid monosodium salt] | maintained their crystalline form | n-butanolate | n-butanolate | –
CCCCCN(C)CCC(O)(P(=O)([O-])O)P(=O)(O)O.[Na+] [Form C2, (1-hydroxy-3-(N-methyl-N-pentylamino)propylidene) bisphosphonic acid monosodium salt] | maintained their crystalline form | – | – | –
CCCCCN(C)CCC(O)(P(=O)([O-])O)P(=O)(O)O.[Na+] [Form C, (1-hydroxy-3-(N-methyl-N-pentylamino)propylidene) bisphosphonic acid monosodium salt, reference compound] | maintained their crystalline form | – | – | crystalline ibandronate sodium Form V
